According to patent US20100234325A1 (priority 2009, published 2010):
Values joined by “and” are separate entries in the source; they are usually repeats but may differ in a detail not shown here. Equal entries are not always repeated. Where two headings read alike, the source gives them in different places.

Columns and labels:
L1210 leukemia [1] = assay: intracerebrally implanted L1210 leukemia in vivo; design: species or system murine; details: for leukemia cell burden after therapy: highest non-toxic dose; for increase in lifespan (ILS): highest non-toxic doses
D54 = details: intrathecal administration; cited from earlier work
TE-671 = details: intrathecal administration; cited from earlier work
D54 tumor = details: intraarterial or intravenous administration; cited from earlier work
[2] = tested on: human glioblastoma xenograft U-251; assay type: in vivo
MX-1 human breast tumor = assay type: in vivo
L1210 leukemia [3] = details: intracerebral L1210 model, typical value; cited from earlier work
SF-268 = SF-268 glioma cell line
Source text: (§1) Additional in vitro studies vs. U251, D54 and MDA-MB-361 cells also included 4-HC.

SNB-19 = SNB-19 glioma cell line
Source text: as §1

SNB-7 = SNB-7 glioma cell line
Source text: as §1

[4] = after 6 hours, ambient temperature, 31P-NMR
L1210 leukemia [5] = details: IP implant; cited from earlier work

SMILES: O=P1(N(CCCl)CCCl)NC(OO)CCO1 (centres unmarked) [4-HC, 4-hydroperoxycyclophosphamide]
- activity against intracerebrally implanted L1210 leukemia (L1210 leukemia [1]; implant of 10^4 cells): essentially inactive
- activity against D54 brain tumor model (D54): active
- activity against TE-671 brain tumor model (TE-671): active
- activity against D54 tumor (D54 tumor): active

SMILES: O=NN(CCCl)C(=O)NCCCl [BCNU, carmustine, reference compound]
- ILS ([2]; in vivo): 110-150% and 130%
- ILS (MX-1 human breast tumor; in vivo): 13%

SMILES: O=P1(N(CCCl)CCCl)NCCCO1 (centres unmarked) [CPA, cyclophosphamide, reference compound]
- leukemia cell burden after therapy (L1210 leukemia [1]; implant of 10^4 cells): 1.3×10^2 cells
- increase in lifespan (ILS) (L1210 leukemia [1]; implant of 10^5 L1210 cells): 37%
- highest non-toxic dose (typical) (L1210 leukemia [3]): 250 to 300 mg/kg

SMILES: O=P1(N(CCCl)CCCl)NC(OOC2CCOP(=O)(N(CCCl)CCCl)N2)CCO1 (centres unmarked) [peroxyCPA, 4-peroxy-cyclophosphamide]
- leukemia cell burden after therapy (L1210 leukemia [1]; implant of 10^4 cells): 1.0×10^0 cells
- increase in lifespan (ILS) over controls (L1210 leukemia [1]; implant of 10^4 cells, highest non-toxic dose (300 mg/kg)): 85%
- reduction of leukemia cell burden relative to CPA (L1210 leukemia [1]; implant of 10^5 L1210 cells): two orders of magnitude more
- increase in lifespan (ILS) (L1210 leukemia [1]; implant of 10^5 L1210 cells): 100%
- highest non-toxic dose (L1210 leukemia [1]; intracerebral L1210 model): 300 mg/kg
- in vitro activity compared to BCNU and temozolomide (SF-268): superior activity
- in vitro activity compared to BCNU and temozolomide (SNB-19): superior activity
- in vitro activity compared to BCNU and temozolomide (SNB-7): superior activity
- ILS ([2]; IC-implanted U-251, one (first) study): 300-350%
- ILS ([2]; IC-implanted U-251, second study): 180%
- ILS (MX-1 human breast tumor; IC-implanted MX-1): 69%
- DNA crosslinking (pBR322 DNA): crosslinks DNA
- remaining in human serum [4]: 74%
- activity against intraperitoneally-implanted L1210 leukemia (L1210 leukemia [5]): curative activity
